Like-named read-outs stand apart in the source and are kept apart here.

Consider 11 compounds from patent US20230295197A1, “STAT5 and STAT6 Degraders and Uses Thereof” (REGENTS OF THE UNIVERSITY OF MICHICAN, priority 2022, published 2023).

One test relates to STAT5. In words: Immunoblotting (Western blot) analysis of STAT5 degradation efficiency of degraders in treated cells. The test is classed as cell-based. In outline: (§1)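 Protein levels of STAT5 and STAT6 were assessed in cells cultured at 37 °C in 10% FBS medium after compound exposure, by quantitative fluorescent Western blotting normalised to equal loading and referenced to GAPDH.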
(Immunoblotting shows a protein as a band on a membrane.)

A further test deals with T1, STAT6 (Homo sapiens, UniProt P42226).
T1 construct: endogenous in cells; host or cells: MOLM-16, KU-812, SKNO1, MB231, L1236
T1 sequence (P42226 1-847): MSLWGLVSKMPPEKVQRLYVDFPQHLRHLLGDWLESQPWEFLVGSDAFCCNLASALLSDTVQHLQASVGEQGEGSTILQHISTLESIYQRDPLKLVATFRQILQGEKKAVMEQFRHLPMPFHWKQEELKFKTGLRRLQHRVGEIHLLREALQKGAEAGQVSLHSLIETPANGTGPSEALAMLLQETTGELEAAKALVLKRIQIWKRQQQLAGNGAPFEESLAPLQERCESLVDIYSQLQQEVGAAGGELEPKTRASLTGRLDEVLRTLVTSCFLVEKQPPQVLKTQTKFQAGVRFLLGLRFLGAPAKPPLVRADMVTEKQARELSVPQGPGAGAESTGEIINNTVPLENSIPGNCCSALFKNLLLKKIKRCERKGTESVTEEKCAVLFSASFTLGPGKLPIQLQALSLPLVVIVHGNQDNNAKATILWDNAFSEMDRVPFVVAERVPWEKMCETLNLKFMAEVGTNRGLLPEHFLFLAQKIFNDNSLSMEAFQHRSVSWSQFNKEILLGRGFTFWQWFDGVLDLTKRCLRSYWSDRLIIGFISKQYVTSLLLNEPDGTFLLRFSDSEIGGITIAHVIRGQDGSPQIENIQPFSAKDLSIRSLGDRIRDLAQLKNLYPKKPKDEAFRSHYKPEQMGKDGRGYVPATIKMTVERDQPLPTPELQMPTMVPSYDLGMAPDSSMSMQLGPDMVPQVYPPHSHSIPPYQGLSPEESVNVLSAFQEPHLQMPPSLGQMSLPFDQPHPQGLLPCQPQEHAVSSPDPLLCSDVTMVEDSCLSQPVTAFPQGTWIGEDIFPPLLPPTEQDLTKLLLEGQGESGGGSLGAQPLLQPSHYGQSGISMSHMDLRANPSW
Put plainly: Immunoblotting (Western blot) analysis of STAT6 degradation efficiency of degraders in treated cells. The test is classed as cell-based. A digest of the protocol:
as §1

[1] abbreviates: KU-812 cells, read-out: DC50 S5 KU-812.
Setting [2] is: MOLM-16 cells, numeric bound, read-out: DC50 S5 MOLM-16.
The mark [3] stands for this setting: SKNO1 cells, read-out: DC50 S5 SKNO1.
[4] abbreviates: MOLM-16 cells, numeric bound, read-out: DC50 S6 MOLM-16.
Where [5] appears, read: MOLM-16 cells, class symbols, read-out: DC50 S5 MOLM-16.

Consider `CC(C)(C)[C@H](NC(=O)c1cc2cc(C(F)(F)P(=O)(O)O)ccc2s1)C(=O)N1CCC[C@H]1C(=O)N(CCC(=O)NCCCC#Cc1cccc2c1CN(C1CCC(=O)NC1=O)C2=O)c1ccc2ncsc2c1` (stereo partly drawn) [Compound 662, ((2-(((2S)-1-((2S)-2-(benzo[d]thiazol-6-yl(3-((5-(2-(2,6-dioxopiperidin-3-yl)-1-oxoisoindolin-4-yl)pent-4-yn-1-yl)amino)-3-oxopropyl)carbamoyl)pyrrolidin-1-yl)-3,3-dimethyl-1-oxobutan-2-yl)carbamoyl)benzo[b]thiophen-5-yl)difluoromethyl)phosphonic acid], for which the half-maximal degradation concentration (DC50) (in general, the concentration at which degradation of the target reaches its halfway point) is over 10000 nM in the test with STAT5 (setting [1]), over 300 nM in the test with STAT5 (setting [2]), over 10000 nM in the test with STAT5 (setting [3]) and over 300 nM at STAT6 (setting [4]).

Turning to `CC(C)(C)[C@H](NC(=O)c1cc2cc(C(F)(F)P(=O)(O)O)ccc2s1)C(=O)N1CCC[C@H]1C(=O)N(CCC(=O)NCCCC#Cc1cccc2c1CN(C1CCC(=O)NC1=O)C2=O)c1ccc2scnc2c1` (stereo partly drawn) [Compound 668, ((2-(((2S)-1-((2S)-2-(benzo[d]thiazol-5-yl(3-((5-(2-(2,6-dioxopiperidin-3-yl)-1-oxoisoindolin-4-yl)pent-4-yn-1-yl)amino)-3-oxopropyl)carbamoyl)pyrrolidin-1-yl)-3,3-dimethyl-1-oxobutan-2-yl)carbamoyl)benzo[b]thiophen-5-yl)difluoromethyl)phosphonic acid], the DC50 in the test with STAT5 (setting [1]) was 100 to 1000 nM; in the test on STAT5 (setting [5]) it was under 100 nM; in the test with STAT5 (setting [3]), 100 to 1000 nM; on STAT6 (setting [4]) it was over 300 nM.

Take `CN(C(=O)[C@@H]1C[C@@H](OCC(=O)NCCCCCCCCC#Cc2cccc3c2CN(C2CCC(=O)NC2=O)C3=O)CN1C(=O)[C@@H](NC(=O)c1cc2cc(C(F)(F)P(=O)(O)O)ccc2s1)C(C)(C)C)c1ccc(Br)cc1` (stereo partly drawn) [Compound 414, ((2-(((2S)-1-((2S,4R)-2-((4-bromophenyl)(methyl)carbamoyl)-4-(2-((10-(2-(2,6-dioxopiperidin-3-yl)-1-oxoisoindolin-4-yl)dec-9-yn-1-yl)amino)-2-oxoethoxy)pyrrolidin-1-yl)-3,3-dimethyl-1-oxobutan-2-yl)carbamoyl)benzo[b]thiophen-5-yl)difluoromethyl)phosphonic acid]: the DC50 is over 10000 nM in the test with STAT5 (setting [3]); over 10000 nM on STAT6 (L1236 cells, read-out: DC50 S6 L1236); over 10000 nM at STAT6 (MB231 cells, read-out: DC50 S6 MB231).

On to `CC(C)(C)[C@H](NC(=O)c1cc2cc(C(F)(F)P(=O)(O)O)ccc2s1)C(=O)N1C[C@@H](OCc2ccccc2)C[C@H]1C(=O)N(CCC(=O)NCCCCC#Cc1cccc2c1CN(C1CCC(=O)NC1=O)C2=O)c1ccc(Br)cc1` (stereo partly drawn) [Compound 624, ((2-(((2S)-1-((2S,4S)-4-(benzyloxy)-2-((4-bromophenyl)(3-((6-(2-(2,6-dioxopiperidin-3-yl)-1-oxoisoindolin-4-yl)hex-5-yn-1-yl)amino)-3-oxopropyl)carbamoyl)pyrrolidin-1-yl)-3,3-dimethyl-1-oxobutan-2-yl)carbamoyl)benzo[b]thiophen-5-yl)difluoromethyl)phosphonic acid], for which, in the test with STAT5 (setting [2]), the DC50 was over 300 nM.

As to `CCN1CC[C@H]2CC[C@@H](C(=O)N(CCC(=O)N3CCC(C#Cc4cccc5c4CN(C4CCC(=O)NC4=O)C5=O)CC3)c3ccc(Br)cc3)N2C(=O)[C@@H](NC(=O)c2cc3cc(C(F)(F)P(=O)(O)O)ccc3s2)C1` (stereo partly drawn) [Compound 630, ((2-(((5S,8S,10aR)-8-((4-bromophenyl)(3-(4-((2-(2,6-dioxopiperidin-3-yl)-1-oxoisoindolin-4-yl)ethynyl)piperidin-1-yl)-3-oxopropyl)carbamoyl)-3-ethyl-6-oxodecahydropyrrolo[1,2-a][1,5]diazocin-5-yl)carbamoyl)benzo[b]thiophen-5-yl)difluoromethyl)phosphonic acid], the DC50 with STAT5 (setting [2]) is over 300 nM.

On to `CC(C)(C)[C@H](NC(=O)c1cc2cc(C(F)(F)P(=O)(O)O)ccc2s1)C(=O)N1CCC[C@H]1C(=O)N(CCC(=O)NCCCC#Cc1cccc2c1CN(C1CCC(=O)NC1=O)C2=O)c1cccc(C(F)(F)F)c1` (stereo partly drawn) [Compound 645, ((2-(((2S)-1-((2S)-2-((3-((5-(2-(2,6-dioxopiperidin-3-yl)-1-oxoisoindolin-4-yl)pent-4-yn-1-yl)amino)-3-oxopropyl)(3-(trifluoromethyl)phenyl)carbamoyl)pyrrolidin-1-yl)-3,3-dimethyl-1-oxobutan-2-yl)carbamoyl)benzo[b]thiophen-5-yl)difluoromethyl)phosphonic acid], for which the DC50 in the test with STAT5 (setting [2]) is over 300 nM; in the test with STAT5 (setting [3]), over 10000 nM.

As for `CCN1CC[C@H]2CC[C@@H](C(=O)N(CCC(=O)NCC#Cc3cccc4c3CN(C3CCC(=O)NC3=O)C4=O)c3ccc(Br)cc3)N2C(=O)[C@@H](NC(=O)c2cc3cc(C(F)(F)P(=O)(O)O)ccc3s2)C1` (stereo partly drawn) [Compound 625, ((2-(((5S,8S,10aR)-8-((4-bromophenyl)(3-((3-(2-(2,6-dioxopiperidin-3-yl)-1-oxoisoindolin-4-yl)prop-2-yn-1-yl)amino)-3-oxopropyl)carbamoyl)-3-ethyl-6-oxodecahydropyrrolo[1,2-a][1,5]diazocin-5-yl)carbamoyl)benzo[b]thiophen-5-yl)difluoromethyl)phosphonic acid], in the test with STAT5 (setting [2]), the DC50 was over 300 nM.

As for `CC(C)(C)[C@H](NC(=O)c1cc2cc(C(F)(F)P(=O)(O)O)ccc2s1)C(=O)N1CCC[C@H]1C(=O)N(CCC(=O)N1CCC(C#Cc2cccc3c2CN(C2CCC(=O)NC2=O)C3=O)CC1)c1ccc(Br)cc1` (stereo partly drawn) [Compound 613, ((2-(((2S)-1-((2S)-2-((4-bromophenyl)(3-(4-((2-(2,6-dioxopiperidin-3-yl)-1-oxoisoindolin-4-yl)ethynyl)piperidin-1-yl)-3-oxopropyl)carbamoyl)pyrrolidin-1-yl)-3,3-dimethyl-1-oxobutan-2-yl)carbamoyl)benzo[b]thiophen-5-yl)difluoromethyl)phosphonic acid], the DC50 in the test on STAT5 (setting [1]) was over 10000 nM; with STAT5 (setting [2]) it was over 300 nM; in the test on STAT5 (setting [3]), over 10000 nM.

Turning to `CC(C)(C)[C@H](NC(=O)c1cc2cc(C(F)(F)P(=O)(O)O)ccc2s1)C(=O)N1C[C@H](OCc2ccccc2)C[C@H]1C(=O)N(CCC(=O)NCCC#Cc1cccc2c1CN(C1CCC(=O)NC1=O)C2=O)c1ccc(Br)cc1` (stereo partly drawn) [Compound 617, ((2-(((2S)-1-((2S,4R)-4-(benzyloxy)-2-((4-bromophenyl)(3-((4-(2-(2,6-dioxopiperidin-3-yl)-1-oxoisoindolin-4-yl)but-3-yn-1-yl)amino)-3-oxopropyl)carbamoyl)pyrrolidin-1-yl)-3,3-dimethyl-1-oxobutan-2-yl)carbamoyl)benzo[b]thiophen-5-yl)difluoromethyl)phosphonic acid], the DC50 with STAT5 (setting [2]) was over 300 nM.

Consider `CC(C)(C)[C@H](NC(=O)c1cc2cc(C(F)(F)P(=O)(O)O)ccc2s1)C(=O)N1CCC[C@H]1C(=O)N(CCC(=O)NCCCC#Cc1cccc2c1CN(C1CCC(=O)NC1=O)C2=O)c1ccc(-c2cccs2)cc1` (stereo partly drawn) [Compound 648, ((2-(((2S)-1-((2S)-2-((3-((5-(2-(2,6-dioxopiperidin-3-yl)-1-oxoisoindolin-4-yl)pent-4-yn-1-yl)amino)-3-oxopropyl)(4-(thiophen-2-yl)phenyl)carbamoyl)pyrrolidin-1-yl)-3,3-dimethyl-1-oxobutan-2-yl)carbamoyl)benzo[b]thiophen-5-yl)difluoromethyl)phosphonic acid], for which the results for the DC50 with STAT5 (setting [1]), in the test with STAT5 (setting [5]) and with STAT5 (setting [3]) were 100 to 1000 nM, under 100 nM and 100 to 1000 nM, respectively.

For the compound `CC(C)(C)[C@H](NC(=O)c1cc2cc(C(F)(F)P(=O)(O)O)ccc2s1)C(=O)N1C[C@H](OCc2ccccc2)C[C@H]1C(=O)N(CCC(=O)NCCCCC#Cc1cccc2c1CN(C1CCC(=O)NC1=O)C2=O)c1ccc(Br)cc1` (stereo partly drawn) [Compound 619, ((2-(((2S)-1-((2S,4R)-4-(benzyloxy)-2-((4-bromophenyl)(3-((6-(2-(2,6-dioxopiperidin-3-yl)-1-oxoisoindolin-4-yl)hex-5-yn-1-yl)amino)-3-oxopropyl)carbamoyl)pyrrolidin-1-yl)-3,3-dimethyl-1-oxobutan-2-yl)carbamoyl)benzo[b]thiophen-5-yl)difluoromethyl)phosphonic acid], in the test with STAT5 (setting [2]), the DC50 is over 300 nM.
